Assay results as given in patent US20210228523A1, “MODULATORS OF SESTRIN-GATOR2 INTERACTION AND USES THEREOF” (Navitor Pharmaceuticals, Inc., priority 2017, published 2021).

System: synaptic proteins (GluR1, Synapsin 1, PSD95)
Assay: Western blot of synaptic proteins in crude synaptosomes from rat prefrontal cortex
Format: in vivo
Conditions: for levels of GluR1 in crude PFC synaptosomes / levels of PSD95 in crude PFC synaptosomes / levels of Synapsin 1 in crude PFC synaptosomes: Example B, 24 hr after administration
Description: Study Design. Forty-eight (48) male Sprague Dawley rats weighing between 175 and 200 g were randomized into 8 study groups (n=6/group), following a 5-day acclimation period. On study day 0, rats in Groups 3 and 7 received a single dose of Sal while Groups 4 and 8 received a single dose of Ket (10 mg/kg) each by i.p. injection. […] One hour after dosing, rats in Groups 1-4 were sacrificed by conscious decapitation and followed by collection of the PFC. Crude synaptosomes were prepared from the PFC and three mTORC1 substrates, pmTOR, pp70S6K and p4E-BP1, and corresponding total protein loading controls (mTOR, p70S6K, and GAPDH) were quantitated by WB. Twenty-four hours after dosing, rats in Groups 5-8 were sacrificed by conscious decapitation and collection of the PFC. Crude synaptosomes were prepared from the PFC and the synaptic proteins (GluR1 and PSD95), as well as the total protein loading control (GAPDH), were quantitated by WB.
Prefrontal Cortex Synaptosome Preparations. The brain was dissected from rats in all groups (n=6/group) and rinsed in PBS. The PFC was collected as shown in FIG. 6 and homogenized at 4° C. in homogenization buffer (0.32 M sucrose, 20 mM HEPES at pH 7.4, 1 mM EDTA, 5 mM NaF, 1 mM NaVO3 and protease inhibitor cocktail (Roche; Ser. No. 19/543,200)). The homogenate was centrifuged for 10 min at 2,800 rpm at 4° C. after which the supernatant was removed and re-centrifuged at 12,000 rpm for 10 min at 4° C. The resulting pellet containing crude synaptosomes was re-suspended in Lysis buffer (50 mM Tris-HCl (pH 7.5), 150 mM NaCl, 1% Triton X-100, 0.1% SDS, 2 mM, EDTA, 1 mM NaVO3, 5 mM NaF and protease inhibitor cocktail) and sonicated on ice for 20 s at 50% amplitude. The protein concentration was determined by Bradford assay and all samples were mixed with loading buffer (60 mM Tris-HCl pH 6.8, 20 mM DTT, 2% SDS, 10% glycerol, 5% β-mercaptoethanol and 0.01% Bromophenol blue) and stored at -20° C. until WB analysis.
Western Blot Analysis: Western blot analysis for GluR1, PSD95 and GAPDH was performed as previously described. Briefly, synaptosomes preparations (15 μg total protein) were loaded into 10-15% SDS PAGE gel for electrophoresis and transferred to a polyvinylidene difluoride (PVDF) membrane in transfer buffer (10× premixed electrophoresis buffer contains 25 mM Tris, 192 mM glycine, pH 8.3; Bio-Rad). The PVDF membranes were blocked for 1 hr at room temperature with blocking buffer (2% BSA in PBS-T (10 mM Phosphate, pH 7.4, 2.7 mM KCl, 137 mM NaCl and 0.1% Tween-20)) and subsequently incubated with primary antibodies: rabbit anti-pmTOR at 1:1000 (Cell Signaling; #5536), rabbit anti-mTOR at 1:1000 (Cell Signaling; #2972), rabbit anti-pp70S6K at 1:1000 (Cell Signaling; #9205), rabbit anti-p70S6K at 1:1000 (Cell Signaling; #2708), rabbit anti-p4E-BP1 at 1:1000 (Cell Signaling; #2855), rabbit anti-GluR1 at 1:1000 (Cell Signaling; #13185), rabbit anti-Synapsin 1 at 1:1000 (Cell Signaling; #5297), rabbit anti-PSD95 at 1:1000 (Cell Signaling; #9644) and rabbit anti-GAPDH at 1:1000 (Cell Signaling; #5174) in blocking buffer overnight at 4° C. The next day, membranes were washed 3 times in PBS-T buffer and incubated with horseradish peroxidase conjugated anti-mouse or anti-rabbit secondary antibody at 1:5000 to 1:10000 (Vector Laboratories Inc) for 1 hr. After final three washes with PBS-T buffer, bands were detected using enhanced chemiluminescence. The blots then were incubated in the stripping buffer (2% SDS, 100 mM β-mercaptoethanol, 50 mM Tris-HCl pH 6.8) for 30 min at 50-55° C. followed by three washes with PBS-T buffer. The stripped blots were kept in blocking solution for 1 hr and incubated with the primary antibody directed against total levels of the respective protein or GAPDH for loading control. Densitometric analysis of phospho- and total immunoreactivity for each protein was conducted using NIH Image J software. […]

Structure (SMILES)	levels of GluR1 in crude PFC synaptosomes (Ket 10 mg/kg i.p.)	levels of PSD95 in crude PFC synaptosomes (Ket 10 mg/kg i.p.)	levels of Synapsin 1 in crude PFC synaptosomes (Ket 10 mg/kg i.p.)	levels of GluR1 in crude PFC synaptosomes (NV-5138 160 mg/kg oral)	levels of PSD95 in crude PFC synaptosomes (NV-5138 160 mg/kg oral)	levels of Synapsin 1 in crude PFC synaptosomes (NV-5138 160 mg/kg oral)	GluR1 in crude PFC synaptosomes (Example E, CUS rats, NV-5138 160 mg/kg oral, 24 hrs after second dose (day 5), p<0.01)	PSD95 in crude PFC synaptosomes (Example E, CUS rats, NV-5138 160 mg/kg oral, 24 hrs after second dose (day 5), p<0.05)
CNC1(c2ccccc2Cl)CCCCC1=O (centres unmarked) [Ket, ketamine, reference compound]	significantly increased	significantly increased	significantly increased					
CC(C)(C[C@H](N)C(=O)O)C(F)F [NV-5138]				significantly increased	trend toward increased expression	significantly increased	normalization	normalization
